{"source": "patent US8663696B2", "about": "“Film delivery system for tetrahydrolipstatin” (MonoSol Rx, LLC, priority 2007, dated 2014)", "origin": "cited, not measured here", "key": {"lipase": {"system": "lipase", "conditions": "background statement on the drug"}, "[1]": {"conditions": "natural crystalline state"}}}
{"smiles": "CCCCCCCCCCC[C@@H](C[C@@H]1OC(=O)[C@H]1CCCCCC)OC(=O)[C@H](CC(C)C)NC=O", "note": "[Tetrahydrolipstatin, (2S,3S,5S)-5-[(S)-2-formamido-4-methyl-valeranyloxy]-2-hexyl-3-hexadecanoic acid lactone]", "values": [{"measurement": "absorption of dietary fat blocked", "setting": "lipase", "value": "approximately 30%"}, {"measurement": "water solubility", "setting": "[1]", "value": "very water-insoluble"}]}
